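48-hour exposure; five concentrations; linearly interpolated endpoints. At the TGI there is no net growth.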
How the values were obtained:
Test in all cases: NCI-60 cell line screen, 48 h
786-0 renal = test system: 786-0 renal
A498 renal = test system: A498 renal
A549 NSCLC = test system: A549 NSCLC
ACHN renal = test system: ACHN renal
BT-549 breast = test system: BT-549 breast
CAKI-1 renal = test system: CAKI-1 renal
CCRF-CEM leukemia = test system: CCRF-CEM leukemia
COLO 205 colon = test system: COLO 205 colon
DLD-1 colon = test system: DLD-1 colon
DMS 114 small cell lung = test system: DMS 114 small cell lung
DMS 273 small cell lung = test system: DMS 273 small cell lung
DU-145 prostate = test system: DU-145 prostate
EKVX NSCLC = test system: EKVX NSCLC
HCC-2998 colon = test system: HCC-2998 colon
HCT-116 colon = test system: HCT-116 colon
HCT-15 colon = test system: HCT-15 colon
HL-60(TB) leukemia = test system: HL-60(TB) leukemia
HOP-18 NSCLC = test system: HOP-18 NSCLC
HOP-62 NSCLC = test system: HOP-62 NSCLC
HOP-92 NSCLC = test system: HOP-92 NSCLC
HS 578T breast = test system: HS 578T breast
HT29 colon = test system: HT29 colon
IGROV1 ovarian = test system: IGROV1 ovarian
K-562 leukemia = test system: K-562 leukemia
KM12 colon = test system: KM12 colon
KM20L2 colon = test system: KM20L2 colon
LOX IMVI melanoma = test system: LOX IMVI melanoma
LXFL 529 NSCLC = test system: LXFL 529 NSCLC
M14 melanoma = test system: M14 melanoma
M19-MEL melanoma = test system: M19-MEL melanoma
MALME-3M melanoma = test system: MALME-3M melanoma
MCF7 breast = test system: MCF7 breast
MDA-MB-231 breast = test system: MDA-MB-231 breast
MDA-N = test system: MDA-N
MOLT-4 leukemia = test system: MOLT-4 leukemia
NCI-H226 lung = test system: NCI-H226 lung
NCI-H23 lung = test system: NCI-H23 lung
NCI-H460 lung = test system: NCI-H460 lung
NCI-H522 lung = test system: NCI-H522 lung
OVCAR-3 ovarian = test system: OVCAR-3 ovarian
OVCAR-4 ovarian = test system: OVCAR-4 ovarian
OVCAR-5 ovarian = test system: OVCAR-5 ovarian
OVCAR-8 ovarian = test system: OVCAR-8 ovarian
PC-3 prostate = test system: PC-3 prostate
RPMI-8226 leukemia = test system: RPMI-8226 leukemia
RXF 393 renal = test system: RXF 393 renal
RXF-631 renal = test system: RXF-631 renal
SF-268 CNS = test system: SF-268 CNS
SF-295 CNS = test system: SF-295 CNS
SF-539 CNS = test system: SF-539 CNS
SK-MEL-2 melanoma = test system: SK-MEL-2 melanoma
SK-MEL-28 melanoma = test system: SK-MEL-28 melanoma
SK-MEL-5 melanoma = test system: SK-MEL-5 melanoma
SK-OV-3 ovarian = test system: SK-OV-3 ovarian
SN12C renal = test system: SN12C renal
SNB-19 CNS = test system: SNB-19 CNS
SNB-75 CNS = test system: SNB-75 CNS
SNB-78 CNS = test system: SNB-78 CNS
SR leukemia = test system: SR leukemia
SW-620 colon = test system: SW-620 colon
T-47D breast = test system: T-47D breast
TK-10 renal = test system: TK-10 renal
U251 CNS = test system: U251 CNS
UACC-257 melanoma = test system: UACC-257 melanoma
UACC-62 melanoma = test system: UACC-62 melanoma
UO-31 renal = test system: UO-31 renal
XF 498 CNS = test system: XF 498 CNS

O=C1c2ccccc2C(=O)c2sc(Nc3ccc([N+](=O)[O-])cc3)nc21
TGI (786-0 renal): 12.3 µM
TGI (A498 renal): 34.8 µM
TGI (A549 NSCLC): 41.7 µM
TGI (ACHN renal): 7.55 µM
TGI (BT-549 breast): 27.4 µM
TGI (CAKI-1 renal): 12 µM
TGI (CCRF-CEM leukemia): 5.37 µM
TGI (COLO 205 colon): 19 µM
TGI (DLD-1 colon): 11.5 µM
TGI (DMS 114 small cell lung): 6.32 µM
TGI (DMS 273 small cell lung): 14.6 µM
TGI (DU-145 prostate): 33.5 µM
TGI (EKVX NSCLC): 23.2 µM
TGI (HCC-2998 colon): 30.1 µM
TGI (HCT-116 colon): 15.2 µM
TGI (HCT-15 colon): 18.9 µM
TGI (HL-60(TB) leukemia): 2.52 µM
TGI (HOP-18 NSCLC): 9.03 µM
TGI (HOP-62 NSCLC): 27.1 µM
TGI (HOP-92 NSCLC): 28.6 µM
TGI (HS 578T breast): 22.2 µM
TGI (HT29 colon): 57.7 µM
TGI (IGROV1 ovarian): 26.2 µM
TGI (K-562 leukemia): 5.98 µM
TGI (KM12 colon): 25.8 µM
TGI (KM20L2 colon): 45.6 µM
TGI (LOX IMVI melanoma): 4.66 µM
TGI (LXFL 529 NSCLC): 3.06 µM
TGI (M14 melanoma): 5.91 µM
TGI (M19-MEL melanoma): 3 µM
TGI (MALME-3M melanoma): 12.6 µM
TGI (MCF7 breast): 31 µM
TGI (MDA-MB-231 breast): 6.39 µM
TGI (MDA-N): 3.49 µM
TGI (MOLT-4 leukemia): 7.17 µM
TGI (NCI-H226 lung): 35.9 µM
TGI (NCI-H23 lung): 9.77 µM
TGI (NCI-H460 lung): 34.4 µM
TGI (NCI-H522 lung): 6.35 µM
TGI (OVCAR-3 ovarian): 6.82 µM
TGI (OVCAR-4 ovarian): 11 µM
TGI (OVCAR-5 ovarian): 29.8 µM
TGI (OVCAR-8 ovarian): 13.7 µM
TGI (PC-3 prostate): 19.9 µM
TGI (RPMI-8226 leukemia): 9.1 µM
TGI (RXF 393 renal): 9.71 µM
TGI (RXF-631 renal): > 55.1 µM
TGI (SF-268 CNS): 12.2 µM
TGI (SF-295 CNS): 24.7 µM
TGI (SF-539 CNS): 15.3 µM
TGI (SK-MEL-2 melanoma): 34.1 µM
TGI (SK-MEL-28 melanoma): 25.7 µM
TGI (SK-MEL-5 melanoma): 6.38 µM
TGI (SK-OV-3 ovarian): 36.8 µM
TGI (SN12C renal): 8.15 µM
TGI (SNB-19 CNS): 25.7 µM
TGI (SNB-75 CNS): 21.1 µM
TGI (SNB-78 CNS): 42 µM
TGI (SR leukemia): 7.97 µM
TGI (SW-620 colon): 8.48 µM
TGI (T-47D breast): 6.81 µM
TGI (TK-10 renal): 26.4 µM
TGI (U251 CNS): 8.71 µM
TGI (UACC-257 melanoma): 11.7 µM
TGI (UACC-62 melanoma): 8.31 µM
TGI (UO-31 renal): 8.94 µM
TGI (XF 498 CNS): 4.18 µM

COc1ccc(/C=C/c2nc(=S)[nH][nH]2)cc1OC
TGI (786-0 renal): > 100 µM
TGI (A498 renal): > 100 µM
TGI (A549 NSCLC): > 100 µM
TGI (ACHN renal): > 100 µM
TGI (CAKI-1 renal): > 100 µM
TGI (CCRF-CEM leukemia): > 100 µM
TGI (DLD-1 colon): > 100 µM
TGI (DMS 114 small cell lung): > 100 µM
TGI (DMS 273 small cell lung): > 100 µM
TGI (HCC-2998 colon): > 100 µM
TGI (HCT-116 colon): > 100 µM
TGI (HCT-15 colon): > 100 µM
TGI (HL-60(TB) leukemia): > 100 µM
TGI (HOP-92 NSCLC): > 100 µM
TGI (HT29 colon): > 100 µM
TGI (IGROV1 ovarian): > 100 µM
TGI (K-562 leukemia): > 100 µM
TGI (KM20L2 colon): > 100 µM
TGI (LOX IMVI melanoma): > 100 µM
TGI (LXFL 529 NSCLC): > 100 µM
TGI (M14 melanoma): > 100 µM
TGI (M19-MEL melanoma): > 100 µM
TGI (MALME-3M melanoma): > 100 µM
TGI (MOLT-4 leukemia): > 100 µM
TGI (NCI-H226 lung): > 100 µM
TGI (NCI-H23 lung): > 100 µM
TGI (NCI-H460 lung): > 100 µM
TGI (OVCAR-3 ovarian): > 100 µM
TGI (OVCAR-4 ovarian): > 100 µM
TGI (OVCAR-5 ovarian): > 100 µM
TGI (OVCAR-8 ovarian): > 100 µM
TGI (RPMI-8226 leukemia): > 100 µM
TGI (RXF 393 renal): > 100 µM
TGI (SF-268 CNS): > 100 µM
TGI (SF-295 CNS): > 100 µM
TGI (SF-539 CNS): > 100 µM
TGI (SK-MEL-2 melanoma): > 100 µM
TGI (SK-MEL-28 melanoma): > 100 µM
TGI (SK-MEL-5 melanoma): > 100 µM
TGI (SN12C renal): > 100 µM
TGI (SNB-19 CNS): > 100 µM
TGI (SNB-75 CNS): > 100 µM
TGI (SNB-78 CNS): > 100 µM
TGI (SR leukemia): > 100 µM
TGI (SW-620 colon): > 100 µM
TGI (TK-10 renal): > 100 µM
TGI (U251 CNS): > 100 µM
TGI (UACC-257 melanoma): > 100 µM
TGI (UACC-62 melanoma): > 100 µM
TGI (UO-31 renal): > 100 µM
TGI (XF 498 CNS): > 100 µM
